For this assay, the system named is male broilers subjected to chronic cyclic heat stress. Briefly: Rectal temperature and panting frequency during heat stress. It is filed as in vivo, broiler chickens (Ross 308). On the procedure:
The finisher period started at d-21, and the chronic cyclic heat stress (HS) protocol was applied from d-24 until d-39. Starting from d-24, the temperature was increased from 22° C. to 34° C. for 6 hours per day (from 9:00 to 15:00) with relative air humidity (RH) between 52 and 58%. From 8:00 to 9:00, the temperature was increased from 22° C. to 34° C., and from 15:00 to 16:00, the temperature was decreased from 34° C. to 22° C. The rest of the day the temperature was 22° C. The room was equipped with heaters with thermostats, and air circulators to enable the desired temperature and RH to be maintained, providing sufficient ventilation and air conditions. RH was adjusted with manual spraying of water on stable walls, periodically. The temperature and the RH were recorded at 10-min intervals with a dry bulb thermo-hygrometer (Escort RH iLog, Escort Verification Technologies Inc., Buchanan, United States).
Rectal temperature and panting frequency (video analyses) (for 2 selected birds per pen on 3 days: d-24, d-31 and d-38, measured after 4 h of heat stress that day)

The mark [1] stands for this setting: 0.1% DMS in diet (T2), Total, all days.
[2] abbreviates: 0.1% DMS in diet (T2), d-24, during heat stress.
Setting [3] is: 0.1% DMS in diet (T2), d-31, during heat stress.
[4] abbreviates: 0.1% DMS in diet (T2), d-38, during heat stress.
Where [5] appears, read: 0.2% DMS in diet (T3), Total, all days.
[6] abbreviates: 0.2% DMS in diet (T3), d-24, during heat stress.
The mark [7] stands for this setting: 0.2% DMS in diet (T3), d-31, during heat stress.
Where [8] appears, read: 0.2% DMS in diet (T3), d-38, during heat stress.

The source of these data is US20230225990A1, “DIMETHYL SULFONE FOR TREATMENT OF CHRONICALLY HEAT STRESSED POULTRY” (Evonik Operations GmbH, priority 2020, published 2023).

Marks after values point to notes of the source that are not given here.

Consider `CS(C)(=O)=O` [DMS, dimethyl sulfone], for which the Panting is listed as 141 #/min under setting [1]; 119^ab #/min under setting [2]; 158 #/min under setting [3]; 147 #/min under setting [4]; 137 #/min under setting [5]; 112^b #/min under setting [6]. For the same compound, the Panting is 143 #/min under setting [7] and 152 #/min under setting [8]. Also, the Rectal temperature is, setting by setting: under setting [1], 42.6^ab ° C; under setting [2], 42.3 °C; under setting [3], 42.9 °C; under setting [4], 42.7 °C; under setting [5], 42.5^b ° C; under setting [6], 42.3 °C. Also, the Rectal temperature worked out at 42.6 °C under setting [7] and 42.6 °C under setting [8].
